The values that follow come from US20110004021A1, “THIAZOLECARBOXANILIDES” (priority 2005, published 2011).

The experiment relates to Alternaria solani. In words: Activity against early blight of tomato caused by Alternaria solani. It counts as in vivo. The following applies: tomato cultivar Goldene Königin, protective spray 4 ppm, infected next day, assessed after 5 days; untreated plants 90% infected. Here is the method:
The active compounds were prepared as a stock solution comprising 25 mg of active compound which was filled up to 10 ml with a mixture of acetone and/or dimethyl sulfoxide and the emulsifier Uniperol® EL (wetting agent having an emulsifying and dispersing action based on ethoxylated alkylphenols) in a solvent/emulsifier volume ratio of 99 to 1. The solution was then made up to 100 ml with water. This stock solution was diluted with the solvent/emulsifier/water mixture described to the active compound concentration given below.
Leaves of potted plants of the cultivar “Goldene Königin” were sprayed to runoff point with an aqueous suspension having the concentration of active compounds stated below. The next day, the leaves were infected with an aqueous spore suspension of Alternaria solani in 2% biomalt solution having a density of 0.12×10^6 spores/ml. The plants were then placed in a water-vapor-saturated chamber at temperatures of between 20 and 22° C. After 5 days, the infection on the untreated, but infected control plants had developed to such an extent that the infection could be determined visually in %.

In turn, `Cc1nc(C(F)(F)F)c(C(=O)Nc2ccccc2-c2ccc(F)c(F)c2)s1` returned an infection of 20%. Next, `Cc1nc(C(F)(F)F)c(C(=O)Nc2ccccc2-c2cc(F)c(F)c(F)c2)s1` [I.1, N-(3′,4′,5′-Trifluorobiphenyl-2-yl)-2-methyl-4-trifluoromethylthiazole-5-carboxamide]: “at most 7%”.
